{"source": "patent US20230212221A1", "about": "“Novel Therapeutic Uses of Mu-Opiate Receptor Peptides” (Cytogel Pharma, LLC, priority 2012, published 2023)", "key": {"[1]": {"biological_target": "T1, human mu-opioid receptor (hOPRM1) (Homo sapiens, UniProt P35372)", "T1 construct": "expressed in transfected cells", "T1 sequence (P35372 whole entry)": "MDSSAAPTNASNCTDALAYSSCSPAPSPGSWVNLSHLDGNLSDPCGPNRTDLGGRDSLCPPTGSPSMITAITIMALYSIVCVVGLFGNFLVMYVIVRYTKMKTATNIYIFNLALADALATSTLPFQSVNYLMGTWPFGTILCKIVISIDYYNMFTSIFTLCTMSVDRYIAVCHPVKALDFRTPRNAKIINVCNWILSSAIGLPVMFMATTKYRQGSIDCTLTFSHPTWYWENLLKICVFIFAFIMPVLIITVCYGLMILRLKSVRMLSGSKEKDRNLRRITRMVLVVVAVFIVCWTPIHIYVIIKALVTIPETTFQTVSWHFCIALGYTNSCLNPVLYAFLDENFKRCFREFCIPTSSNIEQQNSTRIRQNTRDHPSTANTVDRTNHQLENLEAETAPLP", "assay": "cell-based", "method": "The effect of mu-opioid receptor agonists on beta-arrestin recruitment is determined using the PathHunter™ beta-arrestin assay. Briefly, PathHunter™ cell lines expressing human mu-opioid receptor (hOPRM1) are seeded in 384-well microplates at a density of 5,000 cells/well in a total volume of 20 μl, and are allowed to adhere and recover overnight. […] The cells are incubated with the mu-opioid receptor agonist at 37° C. for 90 minutes. The experiment is performed in duplicate.\nMicroplates are read following signal generation with a PerkinElmer Envision™ instrument for chemiluminescent signal detection.\nPercentage activity is calculated using the following formula: % Activity=100%×(mean RLU (relative luminescence unit) of test sample−mean RLU of vehicle control)/(mean MAX RLU control ligand −mean RLU of vehicle control))."}, "[2]": {"biological_target": "T1, human mu-opioid receptor (hOPRM1)", "assay": "cell-based", "method": "The effect of mu-opioid receptor agonists on the inhibition of cAMP production is determined using the […]. Briefly, cAMP Hunter™ cell lines expressing human mu-opioid receptor (hOPRM1) are seeded in 384-well microplates at a density of 10,000 cells/well in a total volume of 20 μl, and are allowed to adhere and recover overnight. […] The cells are incubated with the mu-opioid receptor agonist in the presence of 20 μM forskolin at 37° C. for 30 minutes. The experiment is performed in duplicate.\nAssay signal is generated through incubation with 20 μL cAMP XS+ED/CL lysis cocktail for one hour followed by incubation with 20 μL cAMP XS+EA reagent for three hours at room temperature. Microplates are read following signal generation with a PerkinElmer Envision™ instrument for chemiluminescent signal detection.\nPercentage activity is calculated using the following formula: % Activity=100%×(1−(mean RLU of test sample−mean RLU of MAX control)/(mean RLU of vehicle control−mean RLU of MAXcontrol).", "remark": "listed apart in the source"}, "delta receptors": {"biological_target": "delta receptors (Homo sapiens, UniProt P41143)", "sequence (P41143 whole entry)": "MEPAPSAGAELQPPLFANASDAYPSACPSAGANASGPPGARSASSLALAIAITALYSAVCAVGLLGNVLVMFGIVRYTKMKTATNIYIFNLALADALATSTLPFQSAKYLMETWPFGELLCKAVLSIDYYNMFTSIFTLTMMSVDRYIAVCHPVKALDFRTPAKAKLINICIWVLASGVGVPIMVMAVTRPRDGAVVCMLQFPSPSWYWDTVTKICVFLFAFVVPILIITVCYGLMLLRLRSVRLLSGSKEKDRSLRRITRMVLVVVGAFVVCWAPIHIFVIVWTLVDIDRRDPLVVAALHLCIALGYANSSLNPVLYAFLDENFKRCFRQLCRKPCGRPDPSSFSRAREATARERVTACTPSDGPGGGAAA", "conditions": "relative to mu-opiate receptor binding"}}, "note": "Read-outs that look alike come from different tables or passages of the source."}
{"molecule": "NC(Cc1ccc(O)cc1)C(=O)NC1CCCCNC(=O)C(Cc2ccccc2)NC(=O)C(Cc2c[nH]c3ccccc23)NC1=O", "note": "[CYT-1010, H-Tyr-c-[D-Lys-Trp-Phe]]", "values": [{"measurement": "EC50", "setting": "[1]; PathHunter cells expressing hOPRM1, 90 minutes at 37° C., duplicate, read-out: EC50 (nM), beta-arrestin recruitment", "result": 13.1, "unit": "nM"}, {"measurement": "Max Percent Activity, beta-arrestin recruitment", "setting": "[1]; normalized to control ligand and vehicle, PathHunter cells expressing hOPRM1", "result": 121.2, "unit": "%"}, {"measurement": "EC50", "setting": "[2]; cAMP Hunter cells expressing hOPRM1, 20 μM forskolin, 30 minutes at 37° C., duplicate, read-out: EC50 (nM), inhibition of cAMP production", "result": 0.0053, "unit": "nM"}, {"measurement": "Max Percent Activity, inhibition of cAMP production", "setting": "[2]; normalized to control ligand and vehicle, 20 μM forskolin", "result": 98.350, "unit": "%"}]}
{"molecule": "H-Tyr-Pro-Trp-Phe-NH2 [SEQ ID NO:1]", "values": [{"measurement": "fold weaker binding to delta receptors", "setting": "delta receptors", "result": "over 4,000 fold"}]}
{"molecule": "met-enkephalin [reference compound]", "values": [{"measurement": "Max Percent Activity, beta-arrestin recruitment", "setting": "[1]", "result": 100.1, "unit": "%"}, {"measurement": "Max Percent Activity, inhibition of cAMP production", "setting": "[2]", "result": 102.800, "unit": "%"}]}
